This passage reports IC50 and inhibition results from the Kinase Knowledgebase extract (Sharma et al. 2016).

Chain of EGFR (human) (P00533 whole entry, looked up): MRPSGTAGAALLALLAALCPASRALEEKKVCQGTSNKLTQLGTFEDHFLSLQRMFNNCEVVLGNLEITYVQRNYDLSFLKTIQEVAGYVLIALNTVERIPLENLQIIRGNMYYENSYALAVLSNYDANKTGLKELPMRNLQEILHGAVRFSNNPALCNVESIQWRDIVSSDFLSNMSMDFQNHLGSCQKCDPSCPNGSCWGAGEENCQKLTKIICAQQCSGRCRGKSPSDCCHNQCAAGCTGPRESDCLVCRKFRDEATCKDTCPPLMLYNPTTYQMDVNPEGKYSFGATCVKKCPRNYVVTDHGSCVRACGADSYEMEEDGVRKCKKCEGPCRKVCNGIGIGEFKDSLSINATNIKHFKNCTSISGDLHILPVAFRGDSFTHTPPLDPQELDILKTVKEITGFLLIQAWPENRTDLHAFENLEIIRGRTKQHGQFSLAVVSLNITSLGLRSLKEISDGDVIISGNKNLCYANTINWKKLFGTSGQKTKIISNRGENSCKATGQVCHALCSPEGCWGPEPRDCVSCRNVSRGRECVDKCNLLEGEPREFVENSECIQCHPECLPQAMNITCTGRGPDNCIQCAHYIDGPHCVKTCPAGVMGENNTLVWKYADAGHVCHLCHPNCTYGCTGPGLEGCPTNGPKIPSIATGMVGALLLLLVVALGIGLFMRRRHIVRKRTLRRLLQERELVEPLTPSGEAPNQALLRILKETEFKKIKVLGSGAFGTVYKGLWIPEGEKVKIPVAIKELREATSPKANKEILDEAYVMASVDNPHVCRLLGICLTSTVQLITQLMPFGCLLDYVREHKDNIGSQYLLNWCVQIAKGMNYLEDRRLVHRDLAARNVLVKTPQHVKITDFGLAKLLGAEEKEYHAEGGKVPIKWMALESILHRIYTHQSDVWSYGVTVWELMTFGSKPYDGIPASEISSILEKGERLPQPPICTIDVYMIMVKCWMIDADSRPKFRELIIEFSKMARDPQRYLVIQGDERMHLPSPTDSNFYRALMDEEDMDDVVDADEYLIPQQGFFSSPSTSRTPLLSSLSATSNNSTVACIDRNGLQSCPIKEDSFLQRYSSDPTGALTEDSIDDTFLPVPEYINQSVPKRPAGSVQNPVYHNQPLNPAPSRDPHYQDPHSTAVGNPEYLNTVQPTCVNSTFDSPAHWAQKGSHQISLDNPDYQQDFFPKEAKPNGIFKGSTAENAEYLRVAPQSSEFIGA

The first assay addresses EGFR (human) (UniProt P00533). The settings on record: A431.
For the compound `CC(C)c1cc(CC(C#N)C(N)=O)cc(C(C)C)c1O` (stereo unspecified), the IC50 is 9800 nM.

Take `CCOc1cc(/C=C(\C#N)C(N)=O)cc(CSc2ccccc2)c1O`: the IC50 was determined as 370 nM. This IC50 is about 26-fold lower than that of the compound before.

With `N#C/C(=C\c1cc(-c2ccccc2)c(O)c(-c2ccccc2)c1)C(N)=O`, the IC50 worked out at 370 nM.

In turn, `CC(C)c1cc(/C=C(\C#N)C(N)=O)cc(C(C)C)c1O` displayed a concentration for half-maximal inhibition (IC50) of 1100 nM.

Consider `CCOc1cc(/C=C(\C#N)C(N)=O)cc(CSc2cccc(OC)c2)c1O`, for which the half-maximal inhibitory concentration (IC50) came to 4000 nM.

Consider `CC(C)(C)c1cc(/C=C(\C#N)C(N)=O)cc(C(C)(C)C)c1O`, for which the IC50 worked out at 46000 nM.

The compound `CCOc1cc(/C=C(\C#N)C(N)=O)cc(CSc2ccc(C)cc2)c1O` yielded a 50% inhibitory concentration (IC50) of 2200 nM.

On to `N#C/C(=C\c1cc(CSc2ccccc2)c(O)c(OCc2ccccc2)c1)C(N)=O`, for which the IC50 worked out at 750 nM.

In turn, `CCOc1cc(/C=C(\C#N)C(N)=O)cc(CSc2c(F)c(F)c(F)c(F)c2F)c1O` came in with an IC50 of 3000 nM.

The compound `CCOc1cc(/C=C(\C#N)C(N)=O)cc(CSc2ccc(O)cc2)c1O` returned a half-inhibitory concentration (IC50) of 2800 nM.

Take `COc1cc(/C=C(\C#N)C(N)=O)cc(CSc2ccccc2)c1O`: the IC50 was found to be 530 nM.

Turning to `N#C/C(=C\c1cc(Cc2ccccc2)c(O)c(Cc2ccccc2)c1)C(N)=O`, the IC50 came out at 600 nM.

The same assay, now with this note: A431; concentration not given here.
Consider `CCOc1cc(/C=C(\C#N)C(N)=O)cc(CSc2cccc(OC)c2)c1O`, for which the inhibition worked out at 17%.

Turning to `CCOc1cc(/C=C(\C#N)C(N)=O)cc(CSc2ccc(C)cc2)c1O`, the inhibition was 47%.

`CCOc1cc(/C=C(\C#N)C(N)=O)cc(CSc2c(F)c(F)c(F)c(F)c2F)c1O` came in with an inhibition of 41%.

`CCOc1cc(/C=C(\C#N)C(N)=O)cc(CSc2ccccc2OC)c1O` returned an inhibition of 0%.

In turn, `CCOc1cc(/C=C(\C#N)C(N)=O)cc(CSc2ccc(Cl)c(Cl)c2)c1O` registered an inhibition of 0%.

Compound `CCOc1cc(/C=C(\C#N)C(N)=O)cc(CSc2ccccc2)c1OC(=O)c1ccccc1` yielded an inhibition of 20%.

With `CCOc1cc(/C=C(\C#N)C(N)=O)cc(CSc2ccccc2)c1OC`, the inhibition came out at 18%.

For `CCOc1cc(/C=C(\C#N)C(N)=O)cc(CSc2cccc(Cl)c2)c1O`, the inhibition was 0%.

Compound `CCOc1cc(/C=C(\C#N)C(N)=O)cc(CSc2ccc([N+](=O)[O-])cc2)c1O` displayed an inhibition of 0%.

With `CCOc1cc(/C=C(\C#N)C(N)=O)cc(CSc2ccc(C(C)(C)C)cc2)c1O`, the inhibition stood at 0%.

Take `CCOc1cc(/C=C(\C#N)C(N)=O)cc(CSc2ccc(O)cc2)c1O`: the inhibition came to 30%.

`CCOc1cc(/C=C(\C#N)C(N)=O)cc(CSc2ccc(Br)cc2)c1O` yielded an inhibition of 0%.

The compound `CCOc1cc(/C=C(\C#N)C(N)=O)cc(CSc2ccccc2)c1OC(C)=O` came in with an inhibition of 24%.

In turn, `CCOc1cc(/C=C(\C#N)C(N)=O)cc(COc2ccccc2)c1O` showed an inhibition of 18%.
